Patent US20090246153A1, “COSMETIC COMPOSITIONS FOR THE INHIBITION OF REACTIVE OXYGEN SPECIES” (Nu Skin International, Inc., priority 2008, published 2009)

Experiments:
arNOX [1] = assay: arNOX inhibition: superoxide formation measured by reduction of ferric cytochrome c, serum or buffy coats; format: biochemical
Description: Superoxide Production By Buffy Coats: Buffy coats, a mixture of lymphocytes and platelets. Such buffy coats are commercially available from, for example Rockland ImmunoChemicals (Gilbertsville, Pa.). The blood samples were maintained at 4° C. prior to collection and assay. Ca. 10^7 cells were added to each assay. Cell numbers were determined using a hemocytometer.
Reduction of ferric cytochrome c by superoxide was employed as a standard measure of superoxide formation (Mayo, L. A. and Cumutte, J. (1990) Meth. Enzyme. 186, 567-575. 7. Butler, J, Koppenol, W. H. and Margollash, E. (1982) J. Biol. Chem. 257, 10747). This is a widely accepted method when coupled to superoxide dismutase inhibition for the measurement of superoxide generation. The assay consists of 150 μl serum or 40 μl buffy coats in PBSG buffer (8.06 g NaCl, 0.2 g KCl, 0.18 g Na2HPO4, 0.26 g KH2PO4, 0.13 g CaCl2, 0.1 g MgCl2 1.35 g glucose dissolved in 1000 ml deionized water, adjusted to pH 7.4, filtered and stored at 4° C.) Rates were determined using an SLM Aminco DW-2000 spectrophotometer (Milton Roy, Rochester, N.Y., USA) in the dual wave length mode of operation with continuous measurements over 1 min every 1.5 min. After 45 min, test compounds were added and the reaction was continued for 45 min. After 45 min. A millimolar extinction coefficient of 19.1 cm^−1 was used for reduced ferricytochrome c. The results of the test compounds are provided in Table I. Extracts were made of the compounds in water unless otherwise indicated.

arNOX [2] = conditions: cited from earlier work

For `CC1=C(/C=C/C(C)=C/C=C/C(C)=C/C=C/C=C(C)/C=C/C=C(C)/C=C/C2=C(C)C(=O)[C@@H](O)CC2(C)C)C(C)(C)C[C@H](O)C1=O` [Natural astaxanthin, astaxanthin], the “ArNOX ACTIVITY % OF NO ADDITION” value (arNOX [1]; Ethanol, 25 μg/ml) was 62% and the “INHIBITION (−) or STIMULATION (+)” value (arNOX [1]; Ethanol, 25 μg/ml) was −38%.

In the case of `COC1=C(OC)C(=O)C(C/C=C(\C)CC/C=C(\C)CC/C=C(\C)CC/C=C(\C)CC/C=C(\C)CC/C=C(\C)CC/C=C(\C)CC/C=C(\C)CC/C=C(\C)CCC=C(C)C)=C(C)C1=O` [co-enzyme Q, ubiquinone], the “arNOX activity of aging cells” value (arNOX [2]) is given as “inhibited”.

With `CC1=C(/C=C/C(C)=C/C=C/C(C)=C/C=C/C=C(C)/C=C/C=C(C)/C=C/C2=C(C)CCCC2(C)C)C(C)(C)CCC1` [β-Carotene] the “ArNOX ACTIVITY % OF NO ADDITION” value (arNOX [1]; Ethanol, 0.25 μg/ml) was 73%, the “INHIBITION (−) or STIMULATION (+)” value (arNOX [1]; Ethanol, 0.25 μg/ml) was −42% and the “ArNOX ACTIVITY % OF NO ADDITION” value (arNOX [1]; Ethanol, 2.5 μg/ml) was 50%. The “INHIBITION (−) or STIMULATION (+)” value (arNOX [1]; Ethanol, 2.5 μg/ml) was −50%, the “ArNOX ACTIVITY % OF NO ADDITION” value (arNOX [1]; Ethanol, 25 μg/ml) was 68% and the “INHIBITION (−) or STIMULATION (+)” value (arNOX [1]; Ethanol, 25 μg/ml) was −32%. The “ArNOX ACTIVITY % OF NO ADDITION” value (arNOX [1]; Water, 25 μg/ml) was 28% and the “INHIBITION (−) or STIMULATION (+)” value (arNOX [1]; Water, 25 μg/ml) was −72%.
